From the NIST ThermoML archive (doi:10.1016/j.tca.2006.01.020)

Test: molar heat capacity at constant pressure
Details: 101.33 kPa, Crystal, Small (less than 1 g) adiabatic calorimetry

[Ba+2].[O-2].[O-2].[O-2].[Zr+4] [barium zirconium(IV) oxide]
Details	molar heat capacity at constant pressure [J/K/mol]
1.659 K	0.00346
1.662 K	0.00357
1.664 K	0.00348
1.666 K	0.00351
1.671 K	0.00353
1.675 K	0.00351
1.677 K	0.00363
1.683 K	0.00349
1.689 K	0.00342
1.699 K	0.00335
1.722 K	0.00326
1.735 K	0.00341
1.744 K	0.00345
1.763 K	0.00333
2.098 K	0.00292
2.107 K	0.00345
2.124 K	0.00373
2.15 K	0.0036
2.163 K	0.00346
2.173 K	0.00343
2.185 K	0.00389
2.198 K	0.00355
2.209 K	0.00288
2.216 K	0.00344
2.228 K	0.00346
2.261 K	0.00391
2.281 K	0.0035
2.325 K	0.00371
2.372 K	0.0038
2.389 K	0.00365
2.42 K	0.00384
2.515 K	0.00414
2.651 K	0.00484
2.824 K	0.00516
2.831 K	0.00564
2.919 K	0.00559
2.952 K	0.00633
3.106 K	0.00618
3.116 K	0.00718
3.242 K	0.00714
3.366 K	0.00794
3.538 K	0.00865
3.656 K	0.00903
3.873 K	0.00964
3.987 K	0.0104
4.096 K	0.0108
4.199 K	0.0112
4.473 K	0.0129
4.617 K	0.0156
4.702 K	0.0156
4.777 K	0.0158
4.851 K	0.0176
4.929 K	0.0183
5.008 K	0.02
5.086 K	0.019
5.165 K	0.021
5.246 K	0.0226
5.329 K	0.0234
5.41 K	0.0243
5.489 K	0.0216
5.545 K	0.0289
5.64 K	0.0269
5.717 K	0.0288
5.79 K	0.0301
5.87 K	0.0306
5.93 K	0.0325
6.02 K	0.0336
6.08 K	0.0338
6.19 K	0.0357
6.27 K	0.0366
6.36 K	0.0388
6.45 K	0.0407
6.54 K	0.0424
6.62 K	0.044
6.72 K	0.0458
6.8 K	0.0494
6.9 K	0.0501
6.98 K	0.0511
7.08 K	0.0539
7.16 K	0.0547
7.26 K	0.0547
7.36 K	0.0593
7.47 K	0.0629
7.56 K	0.0638
7.67 K	0.0662
7.77 K	0.07
7.89 K	0.0767
7.98 K	0.076
8.1 K	0.0841
8.2 K	0.083
8.32 K	0.091
8.43 K	0.0913
8.55 K	0.101
8.67 K	0.102
8.8 K	0.112
8.91 K	0.111
9.05 K	0.127
9.12 K	0.121
9.26 K	0.138
9.33 K	0.13
9.47 K	0.148
9.6 K	0.144
9.75 K	0.163
9.88 K	0.159
10 K	0.168
10.01 K	0.17
10.18 K	0.188
10.31 K	0.186
10.47 K	0.208
10.6 K	0.205
10.76 K	0.228
10.94 K	0.235
11.09 K	0.245
11.27 K	0.27
11.45 K	0.278
11.62 K	0.29
11.8 K	0.317
12 K	0.341
12.15 K	0.34
12.35 K	0.385
12.54 K	0.383
12.72 K	0.416
12.92 K	0.449
13.12 K	0.466
13.32 K	0.5
13.53 K	0.54
13.73 K	0.561
13.93 K	0.599
14.13 K	0.628
14.34 K	0.692
14.54 K	0.702
14.75 K	0.772
14.97 K	0.803
15.18 K	0.858
15.39 K	0.892
15.59 K	0.951
15.81 K	1.02
16.03 K	1.06
16.24 K	1.13
16.46 K	1.2
16.68 K	1.25
16.9 K	1.32
17.12 K	1.4
17.34 K	1.46
17.56 K	1.54
17.79 K	1.63
18.03 K	1.72
18.26 K	1.77
18.47 K	1.87
18.69 K	1.97
18.92 K	2.07
19.15 K	2.15
19.38 K	2.27
19.62 K	2.37
19.86 K	2.44
20 K	2.564
20.07 K	2.59
20.32 K	2.69
20.56 K	2.75
20.77 K	2.91
21 K	3.03
21.25 K	3.1
21.47 K	3.28
21.71 K	3.37
21.95 K	3.48
22.17 K	3.66
22.41 K	3.78
22.67 K	3.87
22.9 K	3.98
23.11 K	4.17
23.34 K	4.32
23.59 K	4.41
23.83 K	4.56
24.06 K	4.76
24.31 K	4.87
24.56 K	4.97
24.78 K	5.12
25 K	5.34
25.24 K	5.49
25.5 K	5.6
25.74 K	5.74
25.96 K	5.93
26.19 K	6.12
26.44 K	6.29
26.7 K	6.36
26.94 K	6.51
27.15 K	6.76
27.39 K	6.91
27.68 K	6.91
27.72 K	7.04
28.07 K	7.4
28.32 K	7.57
28.59 K	7.63
28.82 K	7.79
29.03 K	8.03
29.26 K	8.25
30 K	8.651
30.07 K	8.73
30.34 K	8.73
30.45 K	8.93
31.03 K	9.36
31.64 K	9.8
32.28 K	10.4
32.94 K	10.9
33.63 K	11.4
34.33 K	11.9
35.05 K	12.4
35.78 K	13
36.53 K	13.5
37.28 K	14.1
38.03 K	14.7
38.8 K	15.3
39.58 K	15.9
40 K	16.19
40.37 K	16.4
41.18 K	17.1
42 K	17.7
42.84 K	18.3
43.69 K	19
44.56 K	19.6
45.45 K	20.2
46.36 K	21
47.29 K	21.6
48.24 K	22.3
49.21 K	23
50 K	23.59
50.25 K	23.7
51.26 K	24.4
52.27 K	25.2
53.27 K	25.9
54.27 K	26.6
55.27 K	27.3
56.27 K	28.1
57.27 K	28.8
58.26 K	29.5
59.25 K	30.2
60 K	30.79
60.25 K	31
61.24 K	31.6
62.3 K	32.5
63.25 K	33.2
64.23 K	33.8
65.21 K	34.5
66.2 K	35.2
67.19 K	35.9
68.19 K	36.2
69.19 K	36.9
70 K	37.33
71.18 K	38.3
72.18 K	38.8
73.19 K	39.5
74.19 K	40
75.18 K	40.7
76.18 K	41.3
77.18 K	42
78.18 K	42.5
79.18 K	43.1
80 K	43.22
80.18 K	43.6
81.18 K	44.3
82.18 K	44.7
83.18 K	45.1
84.17 K	45.7
85.17 K	46.3
86.17 K	46.7
87.17 K	47.2
87.74 K	46.8
89.5 K	48.5
90 K	48.58
91.29 K	49.3
93.12 K	50.1
94.99 K	51.3
96.9 K	52.1
98.84 K	52.7
100 K	53.49
100.82 K	53.7
102.81 K	54.6
104.8 K	55.6
106.79 K	56.6
108.78 K	57.5
110.77 K	58.4
112.76 K	59.4
114.75 K	60.3
116.74 K	61.2
118.72 K	62
120 K	62.3
120.69 K	62.8
122.66 K	63.7
124.65 K	64.5
126.64 K	65.3
128.63 K	66.1
130.62 K	66.8
132.27 K	67.5
133.6 K	68
134.94 K	68.5
136.28 K	69
137.64 K	69.5
139.02 K	70
140 K	70.04
140.41 K	70.1
141.81 K	70.6
143.23 K	71.1
144.66 K	71.7
146.11 K	72.2
147.57 K	72.7
149.04 K	73.2
150.53 K	73.9
152.03 K	74.3
153.55 K	74.9
155.09 K	75.3
156.64 K	75.9
158.2 K	76.3
159.79 K	76.9
160 K	76.91
161.38 K	77.3
163 K	77.9
164.63 K	78.4
166.26 K	78.9
167.93 K	79.4
169.61 K	79.9
171.3 K	80.4
173.01 K	81
174.74 K	81.4
176.49 K	82
178.25 K	82.3
180 K	82.99
180.03 K	83
181.83 K	83.5
183.65 K	84.1
185.48 K	84.7
187.34 K	85.1
189.21 K	85.5
191.1 K	86.2
193 K	86.7
194.93 K	87
196.88 K	87.9
198.84 K	88
200 K	88.29
200.83 K	88.7
202.81 K	89
204.8 K	89.7
206.78 K	90.5
208.76 K	90.8
210.75 K	91.3
212.73 K	92.4
214.71 K	91.7
216.7 K	92.1
218.69 K	92.5
220 K	92.87
220.66 K	93
222.65 K	93.4
224.62 K	94
226.6 K	94.3
228.58 K	94.9
230.56 K	95.7
232.54 K	95.8
234.52 K	95.9
236.49 K	96.5
238.47 K	96.6
240 K	96.81
240.44 K	97.1
242.41 K	97.6
244.39 K	97.6
246.36 K	98.4
248.33 K	98.2
250.31 K	98.9
252.27 K	99.4
254.25 K	99.7
256.22 K	99.7
258.19 K	99.8
260 K	100.3
260.16 K	100.3
262.12 K	100.7
264.08 K	100.7
266.04 K	101.8
268.01 K	102.2
269.99 K	101.6
271.94 K	102.6
273.9 K	103
275.86 K	103.2
277.83 K	103.3
279.79 K	103.8
280 K	103.7
281.74 K	104.6
283.71 K	105.2
285.68 K	105
287.63 K	105
289.59 K	105.2
291.54 K	107
293.51 K	106.2
295.49 K	107.4
297.42 K	106.6
298.15 K	107
299.39 K	106.6
300 K	107.4
301.32 K	107.9
